Test results from publication PMC3161736 (2011).

Test system: TATA box-containing oligonucleotide (DNA, duplex) GAAGGGGGGCTATAAAAGGGGGTG/CACCCCCTTTTATAGCCCCCCTTC
Assay: EMSA, inhibition of TBP binding to TATA box probe
Details: LightShift chemiluminescent EMSA; probe preincubated with BBR; TBP from PC12 nuclear extract displaced; apparent

An IC50 of 0.3985 µmol was found for `COc1ccc2cc3[n+](cc2c1OC)CCc1cc2c(cc1-3)OCO2` in this work.
